Source: patent US4545932A, “Glucosaminyl muramyl peptide derivatives” (Dainippon Pharmaceutical Co., Ltd., priority 1982, dated 1985)

What was measured:
Format in all cases: in vivo
[1] = system: Escherichia coli P-5101; experiment: Prophylactic effect on experimental infection, Escherichia coli; settings: Std-ddY male mice, 7 days after infection
Text: (§1) Std-ddY male mice weighing about 23 g (each group: 8 mice) were used. Test compounds dissolved in a physiological saline solution were each intravenously administered to mice once a day 1, 2 and 3 days before the infection. Twenty-four hours after the final administration of test compounds, the mice were infected with various microorganisms suspended in saline (in case of Staphylococcus aureus and Candida albicans) or in Trypto-Soy Broth (manufactured by Eiken Chemical Co., Ltd., Japan) (in case of Pseudomonas aeruginosa and Escherichia coli) under the conditions as shown in Table 1. When the experiment was repeated twice or more, the data were pooled.
(§2) ^a Test compounds were intravenously administered once a day 1, 2 and
(§3) 3 days before infection.
(§4) ^b Figures represent (number of survivals)/(number of animals tested)
(§5) and figures in parenthesis represent percent survival.

[2] = system: Pseudomonas aeruginosa No. 12; experiment: Prophylactic effect on experimental infection, Pseudomonas aeruginosa; settings: Std-ddY male mice, 7 days after infection
Text: as §1, §2, §3, §4, §5

[3] = system: various microorganisms; experiment: Antiinfectious effect in mice; settings: summary of Table 2; mice
Text: as §1
Besides, as to the compounds of Examples 8, 18, 36, 37 and 45 (derivatives of GMP3 -A), similar experiments were done.

[4] = Acute toxicity in mice; settings: mortality for 14 days
Description: Male and female ICR mice aged about 6 weeks (each group: 8 mice) were used. The compound of Example 15 was dissolved in distilled water and administered to mice. Mortality was checked for 14 days and LD50 was calculated by probit method.

[5] = system: Staphylococcus aureus No. 50774; experiment: Prophylactic effect on experimental infection, Staphylococcus aureus; settings: Std-ddY male mice, 14 days after infection
Text: as §1, §2, §3, §4, §5

[6] = Pyrogenicity in rabbits; settings: for Pyrogenicity in rabbits: injected into ear vein, three rabbits per group
Description: Rabbits (each group: three rabbits) were used. Test compounds dissolved in a physiological saline solution were each injected into ear vein of rabbits. The difference between maximum body temperature within three hours after the injection of test compound and the body temperature before the injection was regarded as rise in body temperature. The degree of pyrogenicity was evaluated according to the following criterion: […]

[7] = system: Candida albicans 3170; experiment: Prophylactic effect on experimental infection, Candida albicans; settings: Std-ddY male mice, 7 days after infection
Text: as §1
3170 fungal sus- infection
as §2, §3, §4, §5

[8] = Dose 0.05 mg/kg i.v. once a day 1, 2 and 3 days before infection
[9] = Dose 0.2 mg/kg i.v. once a day 1, 2 and 3 days before infection
[10] = Dose 0.8 mg/kg i.v. once a day 1, 2 and 3 days before infection
[11] = Dose 3.1 mg/kg i.v. once a day 1, 2 and 3 days before infection
[12] = Dose 12.5 mg/kg i.v. once a day 1, 2 and 3 days before infection
[13] = Dose 50 mg/kg i.v. once a day 1, 2 and 3 days before infection
[14] = Dose 0.0125 mg/kg i.v. once a day 1, 2 and 3 days before infection
[15] = Dose 0.125 mg/kg i.v. once a day 1, 2 and 3 days before infection

In the case of `CCCCCCCCCCCCCCCCCC(=O)NC(CCCC(NC(=O)CCC(NC(=O)C(C)NC(=O)C(C)OC1C(NC(C)=O)C(O)OC(CO)C1OC1OC(CO)C(O)C(O)C1NC(C)=O)C(N)=O)C(=O)NC(C)C(=O)[O-])C(N)=O.[Na+]` [Example 15, sodium β-N-acetylglucosaminyl(1→4)-N-acetylmuramyl-L-alanyl-D-isoglutaminyl-(L)-stearoyl-(D)-meso-2,6-diaminopimelic acid-(D)-amide(L)-D-alanate], the “(number of survivals)/(number of animals tested)” value [1, 8] is reported as 6/16, the percent survival [1, 8] is reported as 37.5% and the “(number of survivals)/(number of animals tested)” value [1, 9] is reported as 7/16. For the same compound, the percent survival [1, 9] was 43.8%, the “(number of survivals)/(number of animals tested)” value [1, 10] was 10/16 and the percent survival [1, 10] was 62.5%. For the same compound, the “(number of survivals)/(number of animals tested)” value [1, 11] was 11/16, the percent survival [1, 11] was 68.8% and the “(number of survivals)/(number of animals tested)” value [1, 12] was 11/16. The percent survival [1, 12] was 68.8%, the “(number of survivals)/(number of animals tested)” value [1, 13] was 7/8 and the percent survival [1, 13] was 87.5%. The “(number of survivals)/(number of animals tested)” value [2, 14] was 12/32, the percent survival [2, 14] was 37.5% and the “(number of survivals)/(number of animals tested)” value [2, 8] was 14/32. For the same compound, the percent survival [2, 8] was 43.8%, the “(number of survivals)/(number of animals tested)” value [2, 9] was 15/32 and the percent survival [2, 9] was 46.9%. For the same compound, the “(number of survivals)/(number of animals tested)” value [2, 10] was 14/24, the percent survival [2, 10] was 58.3% and the “(number of survivals)/(number of animals tested)” value [2, 11] was 14/16. For the same compound, the percent survival [2, 11] was 87.5%, the “(number of survivals)/(number of animals tested)” value [2, 12] was 8/8 and the percent survival [2, 12] was 100%. For the same compound, the “antiinfectious effect compared with GMP4 -A” value [3] was “more potent antiinfectious effect”, the LD50 ([4]; i.p., female ICR mice) was over 600 mg/kg and the LD50 ([4]; i.p., male ICR mice) was over 600 mg/kg. For the same compound, the LD50 ([4]; i.v., female ICR mice, probit method, 95% confidence limits in parenthesis) was 266 (237-297) mg/kg, the LD50 ([4]; i.v., male ICR mice, probit method, 95% confidence limits in parenthesis) was 292 (261-328*) mg/kg and the LD50 ([4]; p.o., female ICR mice) was over 3000 mg/kg. For the same compound, the LD50 ([4]; p.o., male ICR mice) was over 3000 mg/kg, the LD50 ([4]; s.c., female ICR mice) was over 600 mg/kg and the LD50 ([4]; s.c., male ICR mice) was over 600 mg/kg. The “(number of survivals)/(number of animals tested)” value [5, 8] was 9/16, the percent survival [5, 8] was 56.3% and the “(number of survivals)/(number of animals tested)” value [5, 15] was 3/16. The percent survival [5, 15] was 18.8%, the “(number of survivals)/(number of animals tested)” value [5, 9] was 13/16 and the percent survival [5, 9] was 81.3%. For the same compound, the “(number of survivals)/(number of animals tested)” value [5, 10] was 13/16, the percent survival [5, 10] was 81.3% and the “(number of survivals)/(number of animals tested)” value [5, 11] was 15/16. The percent survival [5, 11] was 93.8%, the “(number of survivals)/(number of animals tested)” value [5, 12] was 13/16 and the percent survival [5, 12] was 81.3%. The Pyrogenicity in rabbits ([6]; Dose 0.1 mg/rabbit) was “- (one animal showed rise in body temperature of 0.6 °C or more)”, the Pyrogenicity in rabbits ([6]; Dose 0.3 mg/rabbit) was “- (one animal showed rise in body temperature of 0.6 °C or more)” and the Pyrogenicity in rabbits ([6]; Dose 1 mg/rabbit) was “- (one animal showed rise in body temperature of 0.6 °C or more)”. For the same compound, the Pyrogenicity in rabbits ([6]; Dose 3 mg/rabbit) was “± (one animal showed rise in body temperature of 0.6 °C or more)”, the Pyrogenicity in rabbits ([6]; Dose 10 mg/rabbit) was “+ (two or more animals showed rise in body temperature of 0.6 °C or more)” and the “pyrogenicity compared with GMP4 -A” value ([6]; summary of Table 3, rabbits) was “less pyrogenicity than GMP4 -A”. For the same compound, the “(number of survivals)/(number of animals tested)” value [7, 10] was 3/8, the percent survival [7, 10] was 37.5% and the “(number of survivals)/(number of animals tested)” value [7, 11] was 4/8. The percent survival [7, 11] was 50%, the “(number of survivals)/(number of animals tested)” value [7, 12] was 4/8 and the percent survival [7, 12] was 50%. The “(number of survivals)/(number of animals tested)” value [7, 13] was 7/8 and the percent survival [7, 13] was 87.5%.
